Drawing on patent publication US20260374754A1, “N-((ISOQUINOLIN-6-YL)METHYL)-1H-PYRAZOLE-4-CARBOXAMIDE DERIVATIVES AS PLASMA KALLIKREIN INHIBITORS FOR THE TREATMENT OF HEREDITARY ANGIODEMA” (Takeda Pharmaceutical Company Limited, priority 2022, published 2026), this text covers EC50 and IC90 for eleven molecules.

In test [1] the target is human activated kallikrein enzyme (Homo sapiens, UniProt P03952). As to the kind of experiment: Inhibition of human activated plasma kallikrein, fluorogenic PFR-AMC substrate, 500 pM enzyme format. It counts as biochemical. Conditions: 500 pM activated kallikrein; 300 μM PFR-AMC; 30 min preincubation; 10 min room temperature; pH 7.5; read-out: Primary Dose Response Assay: Average EC50. Put shortly: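 Using fluorogenic PFR-AMC at 300 μM, cleavage by 500 pM human activated kallikrein ran 10 min at room temperature, read at 460 nm emission (380 nm excitation). Enzyme and compounds were first preincubated 30 min in 20 mM Tris pH 7.5, 150 mM NaCl, 1 mM EDTA, 0.1% PEG-400, 0.1% Triton X-100.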

The target of another test is T1, plasma kallikrein (Homo sapiens, UniProt P03952).
T1 construct: PFR-AMC substrate
Description: Neat Human Plasma Assay (Fluorogenic Peptide), contact pathway-activated (FXIIa) plasma. Conditions: human citrated plasma 78% final; 10 nM human FXIIa; PFR-AMC substrate; 5 minutes; room temperature. It counts as biochemical. Put shortly: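 Compound spiked into citrated human plasma (78% final), or plasma taken from rats dosed orally or IV. Activation by 10 nM FXIIa, then […] PFR-AMC in PKa buffer pH 7.5 at room temperature. Fluorescence rate over 5 min, with IC50/IC90 from 4-parameter fit.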

human activated kallikrein enzyme, sequence (P03952 391-638 limits assumed): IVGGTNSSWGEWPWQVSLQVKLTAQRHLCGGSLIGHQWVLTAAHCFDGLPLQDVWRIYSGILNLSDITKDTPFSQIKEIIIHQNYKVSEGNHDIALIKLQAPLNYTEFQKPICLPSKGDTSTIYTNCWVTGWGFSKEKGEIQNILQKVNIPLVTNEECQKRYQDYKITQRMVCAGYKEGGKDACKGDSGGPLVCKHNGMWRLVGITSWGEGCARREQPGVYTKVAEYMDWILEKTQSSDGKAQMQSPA
human activated kallikrein enzyme, sequence (P03952 20-390 partner limits assumed): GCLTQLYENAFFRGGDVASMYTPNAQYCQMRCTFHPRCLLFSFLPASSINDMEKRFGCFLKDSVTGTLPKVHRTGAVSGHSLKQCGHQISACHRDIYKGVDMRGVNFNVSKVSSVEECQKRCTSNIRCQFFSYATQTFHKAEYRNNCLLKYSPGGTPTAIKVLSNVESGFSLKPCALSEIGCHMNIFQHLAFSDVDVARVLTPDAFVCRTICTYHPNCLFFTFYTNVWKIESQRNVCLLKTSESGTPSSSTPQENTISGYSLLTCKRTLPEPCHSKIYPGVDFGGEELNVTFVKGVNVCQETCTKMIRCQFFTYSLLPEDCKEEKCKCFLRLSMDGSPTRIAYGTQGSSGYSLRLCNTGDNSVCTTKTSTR
T1 sequence (P03952 20-638): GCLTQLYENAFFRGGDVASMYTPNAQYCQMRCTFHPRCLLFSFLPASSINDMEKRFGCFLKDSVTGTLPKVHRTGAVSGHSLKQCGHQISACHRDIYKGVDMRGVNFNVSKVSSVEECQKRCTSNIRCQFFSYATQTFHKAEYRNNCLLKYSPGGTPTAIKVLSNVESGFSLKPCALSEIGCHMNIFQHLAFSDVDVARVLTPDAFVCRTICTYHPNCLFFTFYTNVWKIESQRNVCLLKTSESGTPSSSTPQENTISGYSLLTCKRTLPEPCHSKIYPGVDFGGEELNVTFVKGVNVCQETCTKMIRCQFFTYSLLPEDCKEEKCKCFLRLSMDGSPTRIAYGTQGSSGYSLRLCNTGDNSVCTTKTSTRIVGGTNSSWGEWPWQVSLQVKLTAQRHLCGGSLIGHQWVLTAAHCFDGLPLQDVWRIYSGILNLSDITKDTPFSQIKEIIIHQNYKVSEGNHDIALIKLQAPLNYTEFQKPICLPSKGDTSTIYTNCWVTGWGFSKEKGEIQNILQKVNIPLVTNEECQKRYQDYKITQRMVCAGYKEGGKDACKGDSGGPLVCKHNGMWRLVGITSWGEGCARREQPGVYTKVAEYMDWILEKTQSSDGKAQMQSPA

As usually defined, the EC50 is the concentration that produces a half-maximal response. For orientation: IC90 means the concentration needed for an effect of 90%. `Cc1cc2c(N)nccc2c(C)c1CNc1cc(NCc2ccc(Cn3cccn3)cc2)ncn1` [Example 340, N^4-(4-((1H-pyrazol-1-yl)methyl)benzyl)-N^6-((1-amino-5,7-dimethylisoquinolin-6-yl)methyl)pyrimidine-4,6-diamine]: in test [1], the concentration giving a half-maximal response (EC50) is less than 1 nM. The IC90 on plasma kallikrein is greater than 5000 nM.

Turning to `Cc1cc2c(N)nccc2c(C)c1CNc1cc(OCc2cn3cc(C4CC4)cc(C#N)c3n2)ncn1` [Example 258, 2-(((6-(((1-amino-5,7-dimethylisoquinolin-6-yl)methyl)amino)pyrimidin-4-yl)oxy)methyl)-6-cyclopropylimidazo[1,2-a]pyridine-8-carbonitrile], the EC50 in test [1] is less than 1 nM. This molecule registered an IC90 against plasma kallikrein greater than 5000 nM.

As for `Cc1cc2c(N)nccc2c(C)c1CNc1cc(OCc2cc3cc(C4CC4)cc(CCC(=O)O)n3n2)ncn1` [Example 273, 3-(2-(((6-(((1-amino-5,7-dimethylisoquinolin-6-yl)methyl)amino)pyrimidin-4-yl)oxy)methyl)-5-cyclopropylpyrazolo[1,5-a]pyridin-7-yl)propanoic acid], the EC50 in test [1] was less than 1 nM. This molecule gave an IC90 on plasma kallikrein greater than 5000 nM.

On to `Cc1cc2c(N)nccc2c(C)c1CNc1cc2c(cn1)ncn2Cc1nc2ccc(C3CC3)cn2n1` [Example 503, 6-(((1-((6-cyclopropyl-[1,2,4]triazolo[1,5-a]pyridin-2-yl)methyl)-1H-imidazo[4,5-c]pyridin-6-yl)amino)methyl)-5,7-dimethylisoquinolin-1-amine], for which the EC50 in test [1] was less than 1 nM. The molecule also showed a concentration for an effect of 90% (IC90) against plasma kallikrein of no more than 1000 nM.

Turning to `Cc1cc2c(N)nccc2c(C)c1CNc1cc(OCc2cnc3ccc(C4CC4)cc3c2)ncn1` [Example 387, 6-(((6-((6-cyclopropylquinolin-3-yl)methoxy)pyrimidin-4-yl)amino)methyl)-5,7-dimethylisoquinolin-1-amine], the concentration for a half-maximal effect (EC50) in test [1] lay within 1 to 10 nM. In addition, the IC90 at plasma kallikrein was greater than 5000 nM.

`Cc1cc2c(N)nccc2c(C)c1CNc1nccc2cn(Cc3cn4nc(C5CC5)ccc4n3)nc12` [Example 265, 6-(((2-((6-cyclopropylimidazo[1,2-b]pyridazin-2-yl)methyl)-2H-pyrazolo[3,4-c]pyridin-7-yl)amino)methyl)-5,7-dimethylisoquinolin-1-amine]: the concentration for a half-maximal effect (EC50) in test [1] is less than 1 nM. Also, at plasma kallikrein, the concentration for an effect of 90% (IC90) was no more than 1000 nM.

As for `Cc1cc2c(N)nccc2c(C)c1CNc1nccc2nn(Cc3cn4cc(C5CC5)ccc4n3)cc12` [Example 267, 6-(((2-((6-cyclopropylimidazo[1,2-a]pyridin-2-yl)methyl)-2H-pyrazolo[4,3-c]pyridin-4-yl)amino)methyl)-5,7-dimethylisoquinolin-1-amine], the concentration giving a half-maximal response (EC50) in test [1] is less than 1 nM. In addition, the IC90 against plasma kallikrein is no more than 1000 nM.

For the molecule `Cc1cc2c(N)nccc2c(C)c1CNc1cc(NCc2ccc3ncc(C4CC4)cc3c2)ncn1` [Example 314, N^4-((1-amino-5,7-dimethylisoquinolin-6-yl)methyl)-N^6-((3-cyclopropylquinolin-6-yl)methyl)pyrimidine-4,6-diamine], the half-maximal effective concentration (EC50) in test [1] is less than 1 nM. On plasma kallikrein, the IC90 fell in the range of 1000 to 5000 nM.

Turning to `Cc1cc2c(N)nccc2c(C)c1CNc1cc(NCc2cn3nc(C4CC4)ccc3n2)ncn1` [Example 242, N4-((1-amino-5,7-dimethylisoquinolin-6-yl)methyl)-N6-((6-cyclopropylimidazo[1,2-b]pyridazin-2-yl)methyl)pyrimidine-4,6-diamine], the half-maximal effective concentration (EC50) in test [1] is less than 1 nM. The molecule also yielded a concentration for an effect of 90% (IC90) on plasma kallikrein of 1000 to 5000 nM.

In the case of `Cc1cc2c(N)nccc2c(C)c1CNc1cc(OCc2cc3cc(C4CC4)cc(CCC(C)(C)O)n3n2)ncn1` [Example 508, 4-(2-(((6-(((1-amino-5,7-dimethylisoquinolin-6-yl)methyl)amino)pyrimidin-4-yl)oxy)methyl)-5-cyclopropylpyrazolo[1,5-a]pyridin-7-yl)-2-methylbutan-2-ol], the EC50 in test [1] fell in the range of 1 to 10 nM. For the same molecule, the IC90 on plasma kallikrein is greater than 5000 nM.

Take `Cc1cc2c(N)nccc2c(C)c1CNc1cc(OCc2cc3cc(C4CC4)cnc3s2)ncn1` [Example 281, 6-(((6-((5-cyclopropylthieno[2,3-b]pyridin-2-yl)methoxy)pyrimidin-4-yl)amino)methyl)-5,7-dimethylisoquinolin-1-amine]: the concentration giving a half-maximal response (EC50) in test [1] was in the range of 1 to 10 nM. The molecule further yielded a 90% effect concentration (IC90) on plasma kallikrein greater than 5000 nM.
